Test results as given in US9302999B2, “Substituted triazoles as herbicides” (E. I. DU PONT DE NEMOURS AND COMPANY, priority 2012, dated 2016).

Experiments:
Type in all cases: in vivo
[1] = test system: lambsquarters (Chenopodium album); assay: Test D pre-/postemergence: lambsquarters
How it was run: (§1)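 Visual control ratings (0–100) after 14–21 days, controlled environment. Preemergence on silt loam; postemergence on 2–18 cm plants.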

[2] = test system: pigweed (Amaranthus retroflexus); assay: Test D pre-/postemergence: pigweed
How it was run: as §1

[3] = test system: canarygrass (Phalaris minor); assay: Test C postemergence: canarygrass
How it was run: (§2)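 Greenhouse pot test; foliar postemergence treatment at 1- to 4-leaf stage. Rated visually at 13 to 15 days on a 0–100 control scale relative to untreated plants.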

[4] = test system: speedwell (bird's-eye speedwell, Veronica persica); assay: Test D pre-/postemergence: speedwell; details: Postemergence; for Plant response rating, Speedwell: scale 0 to 100
How it was run: as §1

[5] = test system: galium (catchweed bedstraw, Galium aparine); assay: Test D pre-/postemergence: galium
How it was run: as §1

[6] = test system: cocklebur (common cocklebur, Xanthium strumarium); assay: Test C pre-/postemergence: cocklebur
How it was run: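 Preemergence on seeds in loam/sand, postemergence on 2–18 cm (1–4-leaf) plants in peat-based medium; compounds in non-phytotoxic solvent with surfactant. After 13–15 days in greenhouse, visual rating versus controls, 0 (no effect) to 100 (complete control).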

[7] = test system: field poppy (Papaver rhoeas); assay: Test D pre-/postemergence: field poppy
How it was run: as §1

kochia (Kochia scoparia) = assay: Test D pre-/postemergence: kochia
How it was run: as §1

[8] = test system: deadnettle (henbit deadnettle, Lamium amplexicaule); assay: Test C postemergence: deadnettle
How it was run: as §2

[9] = test system: mustard, wild (wild mustard, Sinapis arvensis); assay: Test D pre-/postemergence: mustard, wild
How it was run: as §1

[10] = Postemergence, 31 g ai/ha, scale 0 to 100 (0 no effect, 100 complete control)
[11] = Postemergence, 62 g ai/ha, scale 0 to 100 (0 no effect, 100 complete control)
[12] = Postemergence, 125 g ai/ha, scale 0 to 100, 0 no effect, 100 complete control
[13] = Postemergence, 250 g ai/ha, scale 0 to 100 (0 no effect, 100 complete control)
[14] = Postemergence, 16 g ai/ha, scale 0 to 100
[15] = Preemergence, 16 g ai/ha, scale 0 to 100 (0 no effect, 100 complete control)
[16] = Preemergence, 31 g ai/ha, scale 0 to 100 (0 no effect, 100 complete control)
[17] = Preemergence, 62 g ai/ha, scale 0 to 100
[18] = Preemergence, 125 g ai/ha, scale 0 to 100
[19] = Preemergence, 250 g ai/ha, scale 0 to 100
[20] = 31 g ai/ha, scale 0 to 100 (0 no effect, 100 complete control)
[21] = 62 g ai/ha, scale 0 to 100 (0 no effect, 100 complete control)
[22] = 125 g ai/ha, scale 0 to 100, 0 no effect, 100 complete control
[23] = 250 g ai/ha, scale 0 to 100 (0 no effect, 100 complete control)
[24] = Postemergence, 250 g ai/ha, scale 0 to 100
[25] = Preemergence, 31 g ai/ha, scale of 0 to 100, 0 is no effect, 100 is complete control
[26] = Preemergence, 125 g ai/ha, scale 0 to 100, 0 no effect, 100 complete control
[27] = Postemergence, 8 g ai/ha, scale 0 to 100

Compound: Cc1nn(-c2ccc(F)cc2)nc1Oc1ccnc(C(F)(F)F)c1 [Compound 129, 4-[[2-(4-fluorophenyl)-5-methyl-2H-1,2,3-triazol-4-yl]oxy]-2-(trifluoromethyl)pyridine]
- Plant response rating: Lambsquarters [1, 10]: 85
- Plant response rating: Lambsquarters [1, 11]: 95
- Plant response rating: Lambsquarters [1, 12]: 100
- Plant response rating: Lambsquarters [1, 13]: 100
- Plant response rating, Lambsquarters [1, 14]: 85
- Plant response rating, Lambsquarters [1, 15]: 0
- Plant response rating, Lambsquarters [1, 16]: 80
- Plant response rating, Lambsquarters [1, 17]: 90
- Plant response rating, Lambsquarters [1, 18]: 90
- Plant response rating, Lambsquarters [1, 19]: 100
- Plant response rating: Pigweed [2, 10]: 100
- Plant response rating: Pigweed [2, 11]: 100
- Plant response rating: Pigweed [2, 12]: 100
- Plant response rating: Pigweed [2, 13]: 100
- Plant response rating, Pigweed [2, 14]: 100
- Plant response rating, Pigweed [2, 15]: 30
- Plant response rating, Pigweed [2, 16]: 80
- Plant response rating, Pigweed [2, 17]: 90
- Plant response rating, Pigweed [2, 18]: 100
- Plant response rating, Pigweed [2, 19]: 100
- Plant response rating, Canarygrass [3, 20]: 30
- Plant response rating, Canarygrass [3, 21]: 45
- Plant response rating, Canarygrass [3, 22]: 50
- Plant response rating, Canarygrass ([3]; 250 g ai/ha, scale 0 to 100): 85
- Plant response rating: Speedwell [4, 20]: 100
- Plant response rating: Speedwell [4, 21]: 100
- Plant response rating: Speedwell [4, 22]: 100
- Plant response rating: Speedwell [4, 23]: 100
- Plant response rating, Speedwell ([4]; 16 g ai/ha): 100
- Plant response rating: Galium [5, 10]: 50
- Plant response rating: Galium [5, 11]: 75
- Plant response rating: Galium [5, 12]: 85
- Plant response rating: Galium [5, 13]: 98
- Plant response rating, Galium [5, 14]: 40
- Plant response rating, Galium [5, 16]: 0
- Plant response rating, Galium [5, 17]: 100
- Plant response rating, Galium [5, 18]: 100
- Plant response rating, Galium [5, 19]: 100
- Plant response rating, Cocklebur [6, 10]: 5
- Plant response rating, Cocklebur [6, 11]: 10
- Plant response rating, Cocklebur [6, 12]: 15
- Plant response rating, Cocklebur [6, 24]: 25
- Plant response rating, Cocklebur [6, 25]: 0
- Plant response rating, Cocklebur ([6]; Preemergence, 62 g ai/ha, scale 0 to 100, 0 no effect, 100 complete control): 0
- Plant response rating, Cocklebur [6, 26]: 0
- Plant response rating, Cocklebur ([6]; Preemergence, 250 g ai/ha, scale 0 to 100, 0 no effect, 100 complete control): 0
- Plant response rating: Field Poppy [7, 10]: 100
- Plant response rating: Field Poppy [7, 11]: 100
- Plant response rating: Field Poppy [7, 12]: 100
- Plant response rating: Field Poppy [7, 13]: 85
- Plant response rating, Field Poppy [7, 14]: 100
- Plant response rating, Field Poppy [7, 15]: 0
- Plant response rating, Field Poppy [7, 16]: 75
- Plant response rating, Field Poppy [7, 17]: 70
- Plant response rating, Field Poppy [7, 18]: 100
- Plant response rating, Field Poppy [7, 19]: 100
- Plant response rating: Kochia (kochia (Kochia scoparia); [10]): 98
- Plant response rating: Kochia (kochia (Kochia scoparia); [11]): 100
- Plant response rating: Kochia (kochia (Kochia scoparia); [12]): 100
- Plant response rating: Kochia (kochia (Kochia scoparia); [13]): 100
- Plant response rating, Kochia (kochia (Kochia scoparia); [14]): 98
- Plant response rating, Kochia (kochia (Kochia scoparia); [15]): 20
- Plant response rating, Kochia (kochia (Kochia scoparia); [16]): 25
- Plant response rating, Kochia (kochia (Kochia scoparia); [17]): 75
- Plant response rating, Kochia (kochia (Kochia scoparia); [18]): 100
- Plant response rating, Kochia (kochia (Kochia scoparia); [19]): 100
- Plant response rating, Deadnettle [8, 20]: 100
- Plant response rating, Deadnettle [8, 21]: 100
- Plant response rating, Deadnettle [8, 22]: 100
- Plant response rating, Deadnettle ([8]; 250 g ai/ha, scale 0 to 100): 100
- Plant response rating, Mustard, Wild [9, 15]: 0
- Plant response rating, Mustard, Wild [9, 16]: 5
- Plant response rating, Mustard, Wild [9, 17]: 40
- Plant response rating, Mustard, Wild [9, 18]: 80
- Plant response rating, Mustard, Wild [9, 19]: 100

Compound: Cc1nn(-c2ccnc(C(F)(F)F)c2)nc1Cc1ccnc(C(F)(F)F)c1 [Compound 137]
- Plant response rating: Lambsquarters [1, 10]: 75
- Plant response rating: Lambsquarters [1, 11]: 80
- Plant response rating: Lambsquarters [1, 12]: 95
- Plant response rating: Lambsquarters [1, 13]: 95
- Plant response rating, Lambsquarters [1, 14]: 40
- Plant response rating: Pigweed [2, 10]: 90
- Plant response rating: Pigweed [2, 11]: 95
- Plant response rating: Pigweed [2, 12]: 100
- Plant response rating: Pigweed [2, 13]: 100
- Plant response rating, Pigweed [2, 14]: 90
- Plant response rating, Canarygrass [3, 20]: 45
- Plant response rating, Canarygrass [3, 21]: 60
- Plant response rating, Canarygrass [3, 22]: 70
- Plant response rating, Canarygrass ([3]; 250 g ai/ha, scale 0 to 100): 75
- Plant response rating: Speedwell [4, 20]: 70
- Plant response rating: Speedwell [4, 21]: 85
- Plant response rating: Speedwell [4, 22]: 95
- Plant response rating: Speedwell [4, 23]: 100
- Plant response rating, Speedwell ([4]; 16 g ai/ha): 70
- Plant response rating: Galium [5, 10]: 20
- Plant response rating: Galium [5, 11]: 40
- Plant response rating: Galium [5, 12]: 75
- Plant response rating: Galium [5, 13]: 75
- Plant response rating, Galium [5, 14]: 20
- Plant response rating, Cocklebur [6, 10]: 45
- Plant response rating, Cocklebur [6, 11]: 50
- Plant response rating, Cocklebur [6, 24]: 60
- Plant response rating: Field Poppy [7, 10]: 40
- Plant response rating: Field Poppy [7, 11]: 100
- Plant response rating: Field Poppy [7, 12]: 100
- Plant response rating: Field Poppy [7, 13]: 100
- Plant response rating, Field Poppy [7, 14]: 30
- Plant response rating: Kochia (kochia (Kochia scoparia); [10]): 85
- Plant response rating: Kochia (kochia (Kochia scoparia); [11]): 90
- Plant response rating: Kochia (kochia (Kochia scoparia); [12]): 95
- Plant response rating: Kochia (kochia (Kochia scoparia); [13]): 100
- Plant response rating, Kochia (kochia (Kochia scoparia); [14]): 75
- Plant response rating, Deadnettle [8, 20]: 80
- Plant response rating, Deadnettle [8, 21]: 95
- Plant response rating, Deadnettle [8, 22]: 95
- Plant response rating, Deadnettle ([8]; 250 g ai/ha, scale 0 to 100): 95
- Plant response rating: Mustard, Wild [9, 10]: 60
- Plant response rating: Mustard, Wild [9, 11]: 80
- Plant response rating: Mustard, Wild [9, 12]: 95
- Plant response rating: Mustard, Wild [9, 13]: 100
- Plant response rating, Mustard, Wild [9, 14]: 50

Compound: Cc1nn(-c2ccc(F)c(F)c2)nc1Oc1ccnc(C(F)(F)F)c1 [Compound 145]
- Plant response rating: Lambsquarters [1, 10]: 90
- Plant response rating: Lambsquarters [1, 11]: 100
- Plant response rating: Lambsquarters [1, 12]: 100
- Plant response rating, Lambsquarters [1, 27]: 10
- Plant response rating, Lambsquarters [1, 14]: 25
- Plant response rating: Pigweed [2, 10]: 95
- Plant response rating: Pigweed [2, 11]: 100
- Plant response rating: Pigweed [2, 12]: 100
- Plant response rating, Pigweed [2, 27]: 20
- Plant response rating, Pigweed [2, 14]: 70
- Plant response rating, Canarygrass [3, 20]: 15
- Plant response rating, Canarygrass [3, 21]: 40
- Plant response rating, Canarygrass [3, 22]: 50
- Plant response rating, Canarygrass ([3]; 250 g ai/ha, scale 0 to 100): 90
- Plant response rating: Speedwell [4, 20]: 70
- Plant response rating: Speedwell [4, 21]: 85
- Plant response rating: Speedwell [4, 22]: 100
- Plant response rating, Speedwell ([4]; 8 g ai/ha): 50
- Plant response rating, Speedwell ([4]; 16 g ai/ha): 55
- Plant response rating: Galium [5, 10]: 35
- Plant response rating: Galium [5, 11]: 40
- Plant response rating: Galium [5, 12]: 70
- Plant response rating, Galium [5, 27]: 5
- Plant response rating, Galium [5, 14]: 30
- Plant response rating, Cocklebur [6, 10]: 10
- Plant response rating, Cocklebur [6, 11]: 15
- Plant response rating, Cocklebur [6, 12]: 65
- Plant response rating, Cocklebur [6, 24]: 65
- Plant response rating, Cocklebur [6, 25]: 0
- Plant response rating, Cocklebur ([6]; Preemergence, 62 g ai/ha, scale of 0 to 100, 0 is no effect, 100 is complete control): 0
- Plant response rating, Cocklebur [6, 26]: 10
- Plant response rating: Field Poppy [7, 10]: 100
- Plant response rating: Field Poppy [7, 11]: 100
- Plant response rating: Field Poppy [7, 12]: 100
- Plant response rating, Field Poppy [7, 27]: 25
- Plant response rating, Field Poppy [7, 14]: 75
- Plant response rating: Kochia (kochia (Kochia scoparia); [10]): 98
- Plant response rating: Kochia (kochia (Kochia scoparia); [11]): 100
- Plant response rating: Kochia (kochia (Kochia scoparia); [12]): 100
- Plant response rating, Kochia (kochia (Kochia scoparia); [27]): 80
- Plant response rating, Kochia (kochia (Kochia scoparia); [14]): 90
- Plant response rating, Deadnettle [8, 20]: 100
- Plant response rating, Deadnettle [8, 21]: 100
- Plant response rating, Deadnettle [8, 22]: 100
- Plant response rating, Deadnettle ([8]; 250 g ai/ha, scale 0 to 100): 100
- Plant response rating: Mustard, Wild [9, 10]: 75
- Plant response rating: Mustard, Wild [9, 11]: 90
- Plant response rating: Mustard, Wild [9, 12]: 100
- Plant response rating, Mustard, Wild [9, 27]: 25
- Plant response rating, Mustard, Wild [9, 14]: 70
